Data taken from PMC8622523, “New Diterpenoids from Mesona procumbens with Antiproliferative Activities Modulate Cell Cycle Arrest and Apoptosis in Human Leukemia Cancer Cells” (Pharmaceuticals, 2021).

Key:
hepatoma = test system: hepatoma; design: method as in PMID 30835539; conditions: read-out: anti-hepatoma IC50; cited from earlier work
[1] = test system: human breast cancer cell line MCF-7; design: method as in PMID 15639346; conditions: cited from earlier work
[2] = test system: PC-3 (human prostate carcinoma); experiment: Cytotoxicity assay (Cell Counting Kit-8), PC-3; type: cell-based; conditions: 72 h of drug treatment, means ± SD of 3 independent experiments
Protocol: (§1) A549 (human lung carcinoma), Hep-3B (human liver carcinoma), PC-3 (human prostate carcinoma), HT29 (human colon carcinoma), U937 (human monoblastic leukemia), and RAW 264.7 cells were purchased from the Food Industry Research and Development Institute (Hsinchu, Taiwan) and cultured in 10% heat-inactivated fetal bovine serum (FBS) in DMEM or RPMI-1640. Cell viability was determined by using Cell Counting Kit-8 (CCK-8; Dojindo, Rockville, MD, USA) according to the manufacturer’s instructions. All experiments were performed in triplicate.

[3] = test system: Hep-3B (human liver carcinoma); experiment: Cytotoxicity assay (Cell Counting Kit-8), Hep-3B; type: cell-based; conditions: 72 h of drug treatment, means ± SD of 3 independent experiments
Protocol: as §1

[4] = test system: U937 (human monoblastic leukemia); experiment: Cytotoxicity assay (Cell Counting Kit-8), U937; type: cell-based; conditions: for IC50: 72 h of drug treatment, Cell Counting Kit-8, means ± SD of 3 independent experiments; for times less potent than 1 and 2: U937 cell lines, SAR comparison
Protocol: as §1

[5] = test system: HT29 (human colon carcinoma); experiment: Cytotoxicity assay (Cell Counting Kit-8), HT29; type: cell-based; conditions: 72 h of drug treatment, means ± SD of 3 independent experiments
Protocol: as §1

[6] = test system: A549 (human lung carcinoma); experiment: Cytotoxicity assay (Cell Counting Kit-8), A549; type: cell-based; conditions: 72 h of drug treatment, means ± SD of 3 independent experiments
Protocol: as §1

U937 cells [7] = experiment: Cell cycle and sub-G1 analysis by flow cytometry (PI staining); type: cell-based, human; conditions: for time course cell cycle analysis: 5 μM mesonol A or 10 μM mesonol B, 3-24 h; for effect of NAC pretreatment on compound-induced cell cycle change (sub-G1 accumulation or G2/M arrest): 10 mM NAC for 1 h, then 5 µM mesonol A 12 h or 10 µM mesonol B 6 h
Protocol: U937 cells were treated with mesonols A (1) or B (2), dosage range: 0.625–10 µM, for the specified time period, fixed in ice-cold 70% ethanol in PBS, suspended in Krishan’s reagent (0.05 mg/mL propidium iodide (PI), 0.1% sodium citrate, 0.02 mg/mL ribonuclease A and 0.3% NP-40), and incubated on ice for 30 min. Data acquisition for 10,000 events was performed with an FACScan system (Becton Dickinson). The distribution of cells in the different phases of the cell cycle was analyzed from the DNA histograms using CELL Quest software. All experiments were performed in triplicate.

U937 cells [8] = experiment: Western blot analysis of cell cycle regulators and apoptosis-related proteins; type: cell-based, human
Protocol: Cells were lysed in RIPA buffer with phenylmethylsulfonyl fluoride (PMSF; Beyotime Biotechnology, Jiangsu, China). The protein concentration was determined using a Bio-Rad protein assay system (Bio-Rad, Hercules, CA, USA). Equivalent amounts of proteins were separated by SDS–PAGE and then transferred to polyvinylidene difluoride membranes (Bio-Rad). After blocking in TBS containing 5% nonfat milk, the membranes were incubated with primary antibodies (1:1000 dilution) at 4 °C for 12 h and then incubated with a horseradish peroxidase-conjugated secondary antibody (1:5000 dilution). Signals were detected on X-ray film using an ECL detection system (Pierce, Rockford, IL, USA). The relative protein levels were calculated based on β-actin as the loading control.

U937 cells [9] = experiment: Measurement of intracellular ROS generation (DCFDA); type: cell-based, human; conditions: for intracellular ROS levels compared to control: 5 µM mesonol A or 10 µM mesonol B, 30 min, DCFH-DA
Protocol: U937 cells were seeded onto 96-well microplates at a final concentration of 1 × 10^5 cells per well and treated with mesonol A or B (5 or 10 µM) for 30 min with or without pretreatment with N-acetylcysteine (NAC) (10 mM) for 1 h. The cells were stained with 2′,7′-dichlorofluorescin diacetate (DCFDA) Cellular Reactive Oxygen Species Detection Assay Kit (Abcam, Cambridge, UK) solution (20 µM) and then incubated at 37 °C for 30 min in the dark. Fluorescence measurements were performed with a fluorescence plate reader (Bio-Rad, Hercules, CA, USA) at Ex/Em = 485/535 nm in end point mode in the presence of compounds, medium, or buffer. All experiments were performed in triplicate.

[10] = test system: A549, Hep-3B, PC-3, HT29, and U937 cancer cells; experiment: Antiproliferative activity, panel of five cancer cell lines; type: cell-based; conditions: Homo sapiens, read-out: IC50 values, range over five cancer cell lines
Protocol: as §1

[11] = test system: normal mouse RAW 264.7 macrophages; experiment: Cytotoxicity assay (Cell Counting Kit-8), RAW 264.7; type: cell-based; conditions: for IC50: normal mouse macrophage cell line, 72 h of drug treatment, Cell Counting Kit-8; for toxicity against normal mouse RAW 264.7 macrophages compared with cancer cells: in words
Protocol: as §1

HL-60 cells = test system: HL-60 cells; design: method as in PMID 20851175; conditions: cited from earlier work
KYSE-450 cells = conditions: cited from earlier work
KYSE-150 cells = conditions: cited from earlier work

Row | Molecule | IC50 ([2]; Homo sapiens, 72 h) [µM] | IC50 ([3]; Homo sapiens, Hep3B, 72 h) [µM] | IC50 ([4]; Homo sapiens, U-937, 72 h) [µM] | IC50 ([5]; Homo sapiens, HT-29, 72 h) [µM] | IC50 ([6]; Homo sapiens, A549, 72 h) [µM] | IC50 ([11]; RAW264.7) [µM] | further results
1 | 4α-hydroxy-17,19-dinor-ent-kaurane-16-one |  |  |  |  |  |  | IC50 (hepatoma): > 100 µM
2 | CC1(C)CCC[C@]2(C)[C@@H]1CC[C@@]13C[C@@H](CC[C@H]12)[C@@](O)(CO)C3.CC1(C)CCC[C@]2(C)[C@@H]1CC[C@@]13C[C@@H](CC[C@H]12)[C@@](O)(CO)C3.O (single isomer, unassigned; ent-16) [ent-16β,17α-dihydroxykaurane] |  |  |  |  |  |  | cytotoxicity and apoptotic effects [1]: exhibit cytotoxicity and apoptotic effects
3 | CCc1c2c(nc3ccc(OC(=O)N4CCC(N5CCCCC5)CC4)cc13)-c1cc3c(c(=O)n1C2)COC(=O)[C@]3(O)CC [CPT-11, reference compound] |  |  |  |  |  |  | IC50 [2]: 31.03 ± 0.28 µM; IC50 [3]: 23.2 ± 0.38 µM; IC50 [4]: 4.95 ± 0.43 µM; IC50 [5]: 15.1 ± 0.48 µM; IC50 [6]: 15.3 ± 0.42 µM
4 | CC1(C)CCCC2(C)C1CCC13CC(C(O)CC12)C(O)(CO)C3=O (stereo not drawn) [Compound 1, 12α,16β,17-trihydroxy-ent-kaur-15-one] | 12.5 ± 0.24 | 12.1 ± 0.55 | 2.66 ± 0.14 | 9.1 ± 0.38 | 17.4 ± 0.28 | > 50 | time course cell cycle analysis (U937 cells [7]): time-dependent accumulation of cells arrested in the G2/M phase; effect on cell population at G2/M phase (U937 cells [7]; 10 μM, 24 h): significant increase in the cell population at G2/M phase; effect of NAC pretreatment on compound-induced cell cycle change (sub-G1 accumulation or G2/M arrest) (U937 cells [7]): little to no effect; effect on percentage of sub-G1 population, dose response (U937 cells [7]; 0.625-10 μM, 24 h, plateau at 5 μM): dose-dependently increased the percentage of the sub-G1 population; G2/M progression proteins cdc25c, cyclin B1, CDK1 (U937 cells [8]; 5 µM, 12 h): decreases in the G2/M progression proteins cdc25c, cyclin B1, and CDK1; p21 protein level (U937 cells [8]; 5 µM, 12 h): significant increase in p21 protein; intracellular ROS levels compared to control (U937 cells [9]): did not induce an increase in intracellular ROS levels; IC50 [10]: 1.97 to 19.9 µM; toxicity against normal mouse RAW 264.7 macrophages compared with cancer cells [11]: less toxic against normal mouse RAW 264.7 macrophages
5 | CC1(C)CCCC2(C)C1CCC13CC(C(O)CC12)C(CO)C3=O (stereo not drawn) [Compound 2, 12α-hydroxy-16β-hydroxymethyl-ent-kaur-15-one] | 4.19 ± 0.31 | 7.06 ± 0.38 | 1.97 ± 0.09 | 2.78 ± 0.03 | 7.39 ± 0.42 | > 50 | time course cell cycle analysis (U937 cells [7]): did not cause an obvious accumulation of cells in any phase but significantly increased apoptotic cells in the sub-G1 population; sub-G1 population (U937 cells [7]; 5 μM, 24 h): 6.33%; sub-G1 population (U937 cells [7]; 10 μM, 24 h): 53.86%; effect of NAC pretreatment on compound-induced cell cycle change (sub-G1 accumulation or G2/M arrest) (U937 cells [7]): significantly suppressed; PARP cleavage (U937 cells [8]; 10 µM, 6 h): significantly cleaved and activated; antiapoptotic proteins (Bcl-2, Bcl-xL) (U937 cells [8]; 10 µM, 6 h): decreases in antiapoptotic proteins, including Bcl-2 and Bcl-xL; caspase-9 and -3 activation (pro-caspase-9 and -3 protein levels) (U937 cells [8]; 10 µM, 6 h): induced the activation of caspase-9 and -3; proapoptosis-related proteins (Bax, cytochrome c, apaf-1) (U937 cells [8]; 10 µM, 6 h): increases in proapoptosis-related proteins, including Bax, cytochrome c and apaf-1; intracellular ROS levels compared to control (U937 cells [9]): significantly higher than those in control cells; intracellular ROS levels with NAC pretreatment (U937 cells [9]; 10 mM NAC 1 h, then 10 µM mesonol B 30 min): could be blocked by pretreatment with NAC; IC50 [10]: 1.97 to 19.9 µM; toxicity against normal mouse RAW 264.7 macrophages compared with cancer cells [11]: less toxic against normal mouse RAW 264.7 macrophages
6 | CC1(C)CCCC2(C)C1CCC13CC(C(O)CC21)C(O)(CO)C3O (stereo not drawn) [Compound 3, 12α,15β,16β,17-tetrahydroxy-ent-kaurane] | 16.5 ± 0.55 | 17.1 ± 0.73 |  | 14.2 ± 0.31 | 17.1 ± 0.36 | > 50 | IC50 [4]: 6.73 ± 0.36 µM; times less potent than 1 and 2 [4]: 2–3 times; IC50 [10]: 1.97 to 19.9 µM
7 | CC1(C)CCCC2(C)C1CCC13CC(C(O)CC21)C(O)(CCl)C3O (stereo not drawn) [Compound 4, 12α,15β,16β-trihydroxy-17-chloro-ent-kaurane] | 16 ± 0.21 | 19.9 ± 0.73 | 8.25 ± 0.24 | 12.6 ± 0.55 | 19.4 ± 0.38 | > 50 | times less potent than 1 and 2 [4]: 2–3 times; IC50 [10]: 1.97 to 19.9 µM
8 | CC1(C)CCCC2(C)C1CCC13CC(C(O)CC21)C(O)(CO)C3O (stereo not drawn) [Compound 5, 12α,15β,16α,17-tetrahydroxy-ent-kaurane] |  |  |  |  |  |  | IC50 [2]: > 20 µM; IC50 [3]: > 20 µM; IC50 [4]: > 20 µM; IC50 [5]: > 20 µM; IC50 [6]: > 20 µM; IC50 [11]: > 50 µM
9 | CC1(C)CCCC2(C)C1CCC13C(O)C(C(=O)CC21)C(O)(CO)C3O (stereo not drawn) [Compound 6, 14β,15β,16β,17-tetrahydroxy-ent-kaur-12-one] | > 20 | > 20 | > 20 | > 20 | > 20 | > 50 | 
10 | CC1(C)CCCC2(C)C1CCC13CC(C(=O)CC21)C(O)(CO)C3O (stereo not drawn) [Compound 7, 15β,16β,17-trihydroxy-ent-kaur-12-one] | > 20 | > 20 | > 20 | > 20 | > 20 | > 50 | 
11 | C=C1C2CC3C4(C)CCCC(C)(C)C4CCC3(CC2O)C1O (stereo not drawn) [Compound 9, 13α,15β-trihydroxy-ent-atis-16(17)-ene] | > 20 | > 20 | > 20 | > 20 | > 20 | > 50 | 
12 | C=C1C2CC3C4(C)CCCC(C)(C)C4CCC3(C1O)C(O)C2O (stereo not drawn) [Compound 10, 13α,14β,15β-trihydroxyl-ent-atis-16-ene] | > 20 | > 20 | > 20 | > 20 | > 20 | > 50 | 
13 | CC1(C)CCCC2(C)C1CCC13CC=C(CO)C1OC(=O)CC23 (centres unmarked) [Compound 11, sarcopetal-13(16)-en-17-ol-12,15-olide] | > 20 | > 20 | > 20 | > 20 | > 20 | > 50 | 
14 | C=C1C(=O)[C@@]23[C@H](O)C[C@@H]4C(C)(C)C(=O)CC[C@@]4(C)[C@@H]2CC[C@@H]1[C@H]3O [glaucocalyxin A] |  |  |  |  |  |  | apoptosis induction (HL-60 cells): induced apoptosis in HL-60 cells
15 | C=C1C(=O)[C@@]23[C@@H]4O[C@H]5O[C@@]2(O)[C@@H](O)[C@@H]2C(C)(C)CCC[C@]52[C@@H]3CC[C@@H]14 [xerophilusin B] |  |  |  |  |  |  | apoptosis and cell cycle arrest (KYSE-450 cells): induce apoptosis and G2/M phase cell cycle arrest; apoptosis and cell cycle arrest (KYSE-150 cells): induce apoptosis and G2/M phase cell cycle arrest
